# According to US10864229B2, “Use of nitrite salts in chronic ischemia” (priority 2007, dated 2020):
# Like-named read-outs stand apart in the source and are kept apart here.
# Key:
# [1] = tested on: mouse hind-limb ischemia model; test: Vascular density (CD31/DAPI) of gastrocnemius muscle tissue; assay type: in vivo, mouse (C57BL/6J)
# From the text: (§1) Animals and Reagents. Unless otherwise stated, male wild type (C57BL/6J) mice weighing 20-25 gm and age 2-3 months were used. The mice were bred and housed at the Association for Assessment and Accreditation of Laboratory Animal Care, International-accredited LSUHSC-Shreveport animal resource facility and maintained according to the National Research Council's Guide for Care and Use of Laboratory Animals. All experimental protocols were approved by the LSU Institutional Animal Care and Use Committee. Sodium nitrite, sodium nitrate, phosphate buffered saline (PBS), and all other chemicals were purchased from Sigma Chemical (St. Louis, Mo.). Hind-Limb Ischemia Model. Hind limb ischemia was induced by ligating the left common femoral artery proximal to origin of profunda femoris artery according to Senthilkumar, A., Smith, R. D., Khitha, J., Arora, N., Veerareddy, S., Langston, W., Chidlow, J. H., Jr., Barlow, S. C., Teng, X., Patel, R. P., et al. 2007. Arterioscler Thromb Vase Biol 27:1947-1954. Mice were anesthetized with intraperitoneal injection of ketamine (100 mg/kg) and xylazine (8 mg/kg); surgery was performed […] aseptic conditions. The common femoral vein and femoral nerve were dissected away from the artery. Two ligatures were placed in the common femoral artery proximal to the profunda femoris artery and then transected between the two ligations. The incision was then closed and the ligation was immediately verified by laser Doppler measurement of tissue blood flow.
# Arterioscler Thromb Vase Biol 27:1947-1954.
# [2] = tested on: mouse hind-limb ischemia model; assay type: in vivo, mouse (C57BL/6J)
# Experimental: (§2) Laser Doppler measurements of tissue blood flow. The Vasamedics Laserflo BPM2 deep tissue penetrating laser doppler device was used to measure hind limb blood flow. The tip of laser probe was placed with stable positioning using a probe stand over the medial calf muscle of mice. Readings were recorded in ml of blood flow per 100 g tissue per minute from non-ischemic and ischemic limbs. Daily blood flow measurements were taken before the first nitrite or nitrate injection of a 24 hour period in order to obtain representative steady state changes in perfusion. Percent change in tissue blood flow was determined by dividing ischemic limb blood flow by non-ischemic limb blood flow and multiplied by 100. In a separate series of experiments, blood flow was also measured within 30 seconds after nitrite or nitrate administration to assess acute changes in blood flow.
# Stimulation of angiogenesis alone during chronic ischemia is generally insufficient for restoring tissue perfusion. Increased arteriogenesis through the recruitment and differentiation of smaller arterioles is important to supply newly formed microvasculature. Moreover, an acute increase in vascular shear stress due to increased blood flow is a critical mediator of arteriogenesis. We examined the effect of 165 μg/kg sodium nitrite on acute changes (30 sec) in ischemic and nonischemic tissue perfusion according to the method in Example 1. Ten mice were used per treatment group.
# [3] = tested on: endothelial cell proliferation in ischemic gastrocnemicus tissues; test: Endothelial cell proliferation (Ki67 staining) in gastrocnemius tissue; assay type: in vivo, mouse (C57BL/6J); conditions: day 3
# From the text: as §1
# The effect of sodium nitrite on endothelial cell proliferation in ischemic gastrocnemicus tissues was analyzed in the hind-limb ischemia model of Example 1.
# [4] = tested on: mouse hind-limb ischemia model; test: Laser Doppler hind-limb blood flow, chronic treatment in hind-limb ischemia model; assay type: in vivo, mouse (C57BL/6J)
# From the text: as §1, §2
# We examined the effect of a range of sodium nitrite doses on ischemic tissue blood flow in the mouse hind-limb ischemia model described in Example 1. Sodium nitrite was administered via intraperitoneal injection twice a day in a dose range of 8.25-3,300 μg/kg; 15 mice were used per treatment group. Blood flow was measured according the laser Doppler method of Example 1. Changes in ischemic tissue perfusion were determined by measuring ischemic limb blood flow which was divided by the respective contra-lateral non-ischemic limb blood flow to calculate a percent change for each animal.
# SNO+XNO = conditions: 165 μg/kg
# Experimental: (§3) Measurement of Nitrite, NO Metabolite, Tissue cGMP, and eNOS Protein Levels. Nitrite and tissue NO metabolite levels tissue (nitrosothiol, C- or N-nitroso compounds, or iron-nitrosyl proteins which are collectively referred to SNO+XNO) whether were measured using chemiluminescence techniques according to Lang, J. D., Jr., Teng, X., Chumley, P., Crawford, J. H., Isbell, T. S., Chacko, B. K., Liu, Y., Jhala, N., Crowe, D. R., Smith, A. B., et al. 2007. J Clin Invest. 117:2583-2591. Gastrocnemius muscle tissue cGMP levels were determined using the cGMP ELISA from Cayman Chemical (Ann Arbor, Mich.) according to the manufacturer's directions. Specimens were collected within 2 min after injection of either PBS or sodium nitrite. Total eNOS protein levels in hind-limb tissue were determined by Western blot analysis.
# The effect of nitrite treatment on levels of the NO metabolites, SNO and XNO was measure according to the method in Example 1. Twenty mice were used per treatment group.
# [5] = tested on: ischemic hind limb of C57BL/6J mice; conditions: 165 μg/kg I.P. b.i.d. started day 5 post-ligation
# Experimental: We also evaluated the effect of delaying chronic sodium nitrite treatment on restoration of hind limb blood flow. Permanent femoral artery ligation was performed on the left hind limb of C57BL/6J mice (n=6 per treatment group) as described in Example 1. […] Blood flow recovery was monitored throughout the study using deep tissue penetrating laser Doppler as described in Example 1. […] “Day 0 Pre” on the x-axis refers to blood flow on the day of ligation before the ligation was performed; “Day 0 Post” on the x-axis refers to blood flow on the day of ligation after the ligation was performed.
# [6] = tested on: ischemic hind limb of C57BL/6J mice; conditions: 165 μg/kg single I.P. bolus 45 minutes after ligation; 7 day period
# Experimental: Permanent femoral artery ligation was performed on the left hind limb of C57BL/6J mice (n=3 per treatment group) according to the method in Example 1. A single bolus injection of either PBS or sodium nitrite (165 μg/kg) was given I.P. 45 minutes after completing the ligation. Blood flow recovery was monitored every other day over a 7 day period to evaluate the efficacy of single bolus injection therapy. […] “Day 0 Pre” on the x-axis refers to blood flow on the day of ligation before the ligation was performed; “Day 0 Post” on the x-axis refers to blood flow on the day of ligation after the ligation was performed.
# [7] = tested on: ischemic hind limb of Db/Db diabetic mice
# Experimental: We evaluated the effect of sodium nitrite treatment on ischemic hind limb blood flow in a diabetic mouse model. Permanent femoral artery ligation was performed on the left hind limb of Db/Db diabetic mice (n=5 per treatment group) according to the methods in Examples 1 and 2, except that the mice were anesthetized with 2% inhaled isofluorane. […] Blood flow recovery was monitored throughout the study using deep tissue penetrating laser Doppler according to the method in Example 1.
# [8] = Experimental: as §3
# (§4) Analysis of blood and tissue nitrite levels in nitrate-treated and control animals was performed according to the method in Example 1.
# eNOS protein = conditions: 165 μg/kg
# Experimental: as §3, §4
# [9] = tested on: mouse hind-limb ischemia model
# Experimental: Vascular casting. Hind limb vascular casting of ischemic limbs was performed using Microfil silicone injection MV120. Before vascular casting, papaverine (5 ng/ml) and adenosine (1 mg/ml) were given intravenously to increase perfusion of the casting resin. Briefly, the abdominal aorta proximal to the femoral artery bifurcation was ligated with 5.0 silk suture material and cannulated caudal to the ligation using PESO tubing held in place with a silk ligature. 400 μl of Microfil was infused into the aortic catheter and allowed to set in situ for 16 hours at 4° C. Hind limb muscle tissue was cleared by incubating tissues in graded glycerol solutions of 40%, 60%, 80%, and 100% for 24 hours each. Vascular casts were subsequently photographed using a stereomicroscope.
# To further evaluate arteriogenesis activity, we performed hind-limb ligations distal to the profunda femoris and proximal to the knee to more easily distinguish changes in the arterial supply. […] Arterial casts were made according to the method in Example 1.
# cGMP = conditions: 165 μg/kg; day 3 or 7
# Experimental: as §3
# [10] = tested on: excisional wounds in C57BL/6J mice; conditions: for percent wound surface remaining vs PBS-treated controls: 165 μg/kg I.P. b.i.d.
# Experimental: Full thickness excisional wounds were created using a 4 mm punch biopsy device. C57BL/6J mice were anesthetized according to the method in Example 1. Wounds were created by pinching the loose skin and punching a half circle biopsy to obtain a uniform 4 mm diameter wound (n=4 per treatment group). […] Wound diameter was measured using digital calipers and plotted as the percent wound surface area remaining at each successive day.
compound,measurement,setting,value
"CC1(C)N([O])C(c2ccc(C(=O)O)cc2)=[N+]([O-])C1(C)C [carboxy PTIO, 2-(4-Carboxyphenyl)-4,4,5,5-tetramethylimidazoline-1-oxyl-3-oxide, reference compound]",effect of cPTIO cotreatment on nitrite augmentation of angiogenesis in ischemic hind limbs,"[1]; cPTIO plus sodium nitrite 165 μg/kg, days 3 and 7",prevented nitrite augmentation of angiogenesis
same,effect of cPTIO on nitrite-dependent acute tissue blood flow change,"[2]; mouse, in vivo",significantly blunted
same,effect of cPTIO on nitrite-induced increase in Ki67 to CD31 colocalization,"[3]; cPTIO plus sodium nitrite, ischemic tissue",blocked
same,effect of carboxy PTIO on nitrite-induced increase in Ki67 nuclear localization,"[3]; carboxy PTIO plus sodium nitrite, ischemic tissue",blocked
same,effect of NO scavenger on ability of sodium nitrite to restore ischemic limb blood flow,[4]; carboxy PTIO 1 mg/kg daily plus sodium nitrite 165 μg/kg,significantly attenuated
"O=[N+]([O-])[O-].[Na+] [sodium nitrate, reference compound]",ischemic limb blood flow,"[4]; lowest dose 8.25 μg/kg, by days 5 and 7",augmented ischemic limb blood flow
O=NO [sodium nitrite],tissue SNO+XNO levels,SNO+XNO; day 3,Neither sodium nitrite (165 μg/kg) nor PBS significantly altered
same,SNO+XNO levels in ischemic tissue,"SNO+XNO; day 7, compared to PBS",significantly increased
same,endothelial staining of CD31 in ischemic muscle tissue,"[1]; 165 μg/kg, day 7, compared to PBS or sodium nitrate controls",much more abundant
same,nonischemic tissue vascular density,"[1]; 165 μg/kg, day 7, nonischemic gastrocnemius",did not significantly alter
same,vascular density of ischemic gastrocnemius muscle,"[1]; 165 μg/kg, days 3 and 7, compared to PBS or sodium nitrate",significantly increased
same,"augmentation of ischemic tissue vascular density, high dose vs low dose","[1]; 3,300 μg/kg compared to 165 μg/kg",less potent
same,ischemic hind limb blood flow recovery with delayed therapy,[5],restored
same,acute blood flow change under chronic nitrite therapy,"[2]; 165 μg/kg, days 3 and 7","lesser, yet still significant, increase"
same,acute enhancement of ischemic tissue blood flow,"[2]; mouse, in vivo",92.3±18%
same,duration of increased blood flow after injection,"[2]; mouse, in vivo",> 10 min
same,ischemic hind limb blood flow recovery after single bolus,[6],did not restore
same,ischemic hind-limb blood flow recovery in diabetic mice,[7]; 165 μg/kg I.P. b.i.d. started post-ligation,restored
same,blood flow in ischemic hind limbs vs PBS-treated controls,"[7]; 165 μg/kg I.P. b.i.d., all time points analyzed",significantly greater
same,blood flow in ischemic hind limbs relative to preligation,"[7]; 165 μg/kg I.P. b.i.d., by the end of the study",approached preligation levels
same,blood levels of nitrite,"[8]; 165 μg/kg chronic therapy, days 3 and 7",significantly decreased over time
same,tissue nitrite levels,"[8]; 165 μg/kg, day 3, ischemic tissue",significantly increased
same,"tissue nitrite levels, nitrite-treated vs PBS-treated","[8]; 165 μg/kg, day 7",did not differ significantly
same,eNOS protein expression,"eNOS protein; day 3, ischemic hind-limb tissue",significantly decreased
same,eNOS protein expression,"eNOS protein; day 3, nonischemic hind-limb tissue",without altering expression
same,eNOS protein expression,"eNOS protein; day 7, ischemic tissue",no effect
same,eNOS protein expression,"eNOS protein; day 7, nonischemic tissue",reduced
same,collateral vessels in arterial cast of ischemic limb,"[9]; day 7, vascular casting",Numerous collateral vessels
same,number of arterial branch points,"[9]; ligation distal to profunda femoris, vs PBS-treated controls",significantly greater
same,Ki67 nuclear localization (colocalization with DAPI),"[3]; 165 μg/kg, ischemic tissue",significantly increased
same,Ki67 to CD31 colocalization,"[3]; 165 μg/kg, ischemic tissue",significantly increased
same,Ki67 nuclear localization (colocalization with DAPI),"[3]; 165 μg/kg, non-ischemic tissue",but not non-ischemic tissues
same,tissue cGMP levels,cGMP,neither 165 μg/kg sodium nitrite nor PBS significantly altered
same,excision wound healing,"[10]; 165 μg/kg I.P. b.i.d. from wounding, 4 mm wound",enhanced
same,percent wound surface remaining vs PBS-treated controls,[10]; first six days of the study,significantly less
same,percent wound surface remaining vs PBS-treated controls,[10]; remaining four days,lower
same,temporal efficacy on ischemic blood flow compared to higher and lower doses,[4]; 165 μg/kg i.p. twice a day,optimal temporal efficacy
same,hind limb blood flow in the nonischemic limbs,"[4]; 165 μg/kg i.p., nonischemic limb",neither PBS nor sodium nitrite altered
same,blood flow after injection in hind limbs ischemic for 24 h,[4]; 165 μg/kg injection,enhanced blood flow
same,percentage blood flow in ischemic hind limbs,"[4]; 8.25, 16.5, 165 and 3,300 μg/kg i.p. twice a day, by day 3 post ligation, progressively increased by day 7, vs PBS",increased the percentage blood flow
